Experimental data reported in US5298619A, “1,4-dihydropyridine compounds with PAF-antagonistic activity” (Alter, S.A., priority 1991, dated 1994).
pIC50: −log10 of the molar value.

Key:
PAF = details: cited from earlier work; for PAF antagonistic properties: background statement
[1] = test system: aggregation induced by 1-PAF in rabbit platelets; assay: Effect on the aggregation induced by 1-PAF in rabbit platelets (washed platelets); type: cell-based, rabbit (male, albino, New Zealand); details: Oryctolagus cuniculus, Platelet, 37° C., 5 min preincubation, 1-PAF=1.92 nM, compounds 10 to 0.1 micM, mean of three experiments in duplicate
Description: STUDIES WITH WASHED PLATELETS: Aggregation
The suspensions of washed platelets were obtained from rabbit's blood (male, albino, New Zealand), anticoagulated with a solution of citric acid citrate/sodium dextrose in the ratio 1:6 (v:v).
The platelet rich plasma (PRP) was obtained by centrifuging blood samples at 100×g for 10 minutes and the platelets by centrifuging the PRP at 1,800×g for 15 minutes at 4° C. The pellet obtained in this way was washed twice with Tyrode tampon containing citric acid, PGE and aspirase, pH 6.5. The platelets so-washed were finally resuspended in Hepes-Tyrode tampon, pH 7.35 supplemented with bovine seric albumin at 0.35%; Ca++ 2 mM.
The final platelet concentration was adjusted to 300,000 platelets/mic-1. The aggregation was measured turbidimetrically using a lumiaggregometre (Chrono-Log.Co; Haventon, Pa., USA) at 37° C. under stirring at 1,100 r.p.m. The study was made in aliquots of preincubated PRP, with the compounds under study, for 5 minutes. The concentration of the antagonists was, in all cases, between 10 micM and 0.1 micM. The aggregation was induced by adding L-PAF diluted in 5 micl of Hepes/albumin tampon, the final concentration being 1.9×0,000000001. The IC50 for each compound was evaluated graphically from the dose-response curves.
The data reflected is the mean of three experiments performed in duplicate. Concentration of 1-PAF=1.92 nM.
The concentrations of compounds, in all cases, were between 10 and 0.1 micM .

bronchoconstriction = details: doses times lower than histamine; cited from earlier work

SMILES | pIC50 [1] | other results
COc1ccc([C@@H]2Sc3ccccc3N(CCN(C)C)C(=O)[C@@H]2OC(C)=O)cc1 [Diltiazem] | – | PAF antagonistic properties (PAF): present PAF antagonistic properties
COC(=O)C1=C(C)NC(C)=C(C(=O)OCCS(=O)(=O)c2ccc(C)cc2)C1C (centres unmarked) [Example 2, 2-(4-methylphenylsulphonyl) ethyl 5-methoxycarbonyl-2,4,6-trimethyl-1,4-dihydropyridine-3-carboxylate] | 5.96 | –
COC(=O)C1=C(C)NC(C)=C(C(=O)OCCCOc2ccc(-c3ccccc3)cc2)C1C (centres unmarked) [Example 3, 3-(4-phenylphenoxy) propyl 5-methoxycarbonyl-2,4,6-trimethyl-1,4-dihydropyridine-3-carboxylate] | 6.62 | –
COC(=O)C1=C(C)NC(C)=C(C(=O)OCCCSc2ccc(C)cc2)C1C (centres unmarked) [Example 4, 3-(4-methylphenylthio) propyl 5-methoxycarbonyl-2,4,6-trimethyl-1,4-dihydropyridine-3-carboxylate] | 6.07 | –
COC(=O)C1=C(C)NC(C)=C(C(=O)OCCS(=O)(=O)c2ccccc2)C1C (centres unmarked) [Example 5, 2-(phenylsulphonyl) ethyl 5-methoxycarbonyl-2,4,6-trimethyl-1,4-dihydropyridine-3-carboxylate] | 5.89 | –
COC(=O)C1=C(C)NC(C)=C(C(=O)OCCCS(=O)(=O)c2ccccc2)C1C (centres unmarked) [Example 13] | 5.64 | –
COC(=O)C1=C(C)NC(C)=C(C(=O)OCCCOc2ccc(Cl)c(Cl)c2)C1C (centres unmarked) [Example 41] | 5.57 | –
COC(=O)C1=C(C)NC(C)=C(C(=O)OCCCSc2ccc(Cl)c(Cl)c2)C1C (centres unmarked) [Example 45] | 6.82 | –
CCOC(=O)C1=C(C)NC(C)=C(C(=O)OCCCSc2ccc(Cl)c(Cl)c2)C1C (centres unmarked) [Example 46] | 5.85 | –
COC(=O)C1=C(C)NC(C)=C(C(=O)OCCCOc2ccc(C)cc2)C1C (centres unmarked) [Example 48] | 5.40 | –
COC(=O)C1=C(C)NC(C)=C(C(=O)OCCCS(=O)(=O)c2ccc(C)cc2)C1C (centres unmarked) [Example 52] | 5.57 | –
COC(=O)C1=C(C)NC(C)=C(C(=O)OCCOc2ccc(OC)cc2)C1C (centres unmarked) [Example 62] | 5.00 | –
CCOC(=O)C1=C(C)NC(C)=C(C(=O)OCCS(=O)(=O)c2ccccc2)C1C (centres unmarked) [Example 74] | 5.55 | –
COC(=O)C1=C(C)NC(C)=C(C(=O)OCCOc2ccc(Cl)cc2)C1C (centres unmarked) [Example 131] | 5.00 | –
COC(=O)C1=C(C)NC(C)=C(C(=O)OCCOc2cccc(N(C)C)c2)C1C (centres unmarked) [Example 135] | 5.55 | –
COC(=O)C1=C(C)NC(C)=C(C(=O)OCCOc2ccc(Oc3ccccc3)cc2)C1C (centres unmarked) [Example 140] | 5.70 | –
COC(=O)C1=C(C)NC(C)=C(C(=O)OCCCOc2cccc3ccccc23)C1C (centres unmarked) [Example 154] | 5.96 | –
COC(=O)C1=C(C)NC(C)=C(C(=O)OCCCSc2ccccc2)C1C (centres unmarked) [Example 163, 3-(phenylthio) propyl 5-methoxycarbonyl-2,4,6-trimethyl-1,4-dihydropyridine-3-carboxylate] | 6.39 | –
CCC1C(C(=O)OC)=C(C)NC(C)=C1C(=O)OCCCSc1ccc(Cl)cc1 (centres unmarked) [Example 164, 3-(4-chlorophenylthio) propyl 2,6-dimethyl-4-ethyl-5-methoxycarbonyl-1,4-dihydropyridine-3-carboxylate] | 6.49 | –
CCOC(=O)C1=C(C)NC(C)=C(C(=O)OCCCSc2ccccc2)C1C (centres unmarked) [Example 166] | 5.59 | –
COC(=O)C1=C(C)NC(C)=C(C(=O)OCCCSc2ccc3ccccc3c2)C1C (centres unmarked) [Example 167] | 6.40 | –
COc1ccc(CCN(C)CCCC(C#N)(c2cc(OC)c(OC)c(OC)c2)C(C)C)cc1OC (centres unmarked) [Gallopamil] | – | PAF antagonistic properties (PAF): present PAF antagonistic properties
COC(=O)C1=C(C)NC(C)=C(C(=O)OC)C1c1ccccc1[N+](=O)[O-] [Nifedipina] | – | PAF antagonistic properties (PAF): only show a very weak activity; concentrations needed to obtain an effect, relative to those inhibiting calcium flow in other cells (PAF; fold higher than those inhibiting calcium flow in other cells): 1,000,000; concentrations needed to obtain an effect, relative to the specific antagonists of the PAF-"acether" (PAF; times greater than the specific antagonists of the PAF-"acether"): ≥ 1,000 times
CCCCCCCCCCCCCCCCOCC(COP(=O)([O-])OCC[N+](C)(C)C)OC(C)=O (centres unmarked) [PAF-"acether", 1-O-hexadecyl/octodecyl-2-acetyl-sn-glycero-3-phosphocoline] | – | doses inducing bronchoconstriction, relative to histamine (bronchoconstriction): 100 times lower

Now from value to molecule, other results behind:

pIC50 [1] | SMILES | other results
6.47 | COC(=O)C1=C(C)NC(C)=C(C(=O)OCCCSc2ccc(Cl)cc2)C1C (centres unmarked) [Example 1, 3-(4-chlorophenylthio) propyl 5-methoxycarbonyl-2,4,6-trimethyl-1,4-dihydropyridine-3-carboxylate] | –
5.52 | COC(=O)C1=C(C)NC(C)=C(C(=O)OCCCOc2ccccc2)C1C (centres unmarked) [Example 6] | –
5.51 | COC(=O)C1=C(C)NC(C)=C(C(=O)OCCCSc2ccc(NC(C)=O)cc2)C1C (centres unmarked) [Example 30] | –
5.70 | COC(=O)C1=C(C)NC(C)=C(C(=O)OCCCOc2ccc(OC)cc2)C1C (centres unmarked) [Example 61] | –
5.55 | COC(=O)C1=C(C)NC(C)=C(C(=O)OCCOc2ccc(-c3ccccc3)cc2)C1C (centres unmarked) [Example 64] | –
5.62 | CCOC(=O)C1=C(C)NC(C)=C(C(=O)OCCCOc2ccc(-c3ccccc3)cc2)C1C (centres unmarked) [Example 66] | –
5.55 | COC(=O)C1=C(C)NC(C)=C(C(=O)OCCCSc2ccc([N+](=O)[O-])cc2)C1C (centres unmarked) [Example 76] | –
5.55 | CCOC(=O)C1=C(C)NC(C)=C(C(=O)OCCCSc2ccc(Cl)cc2)C1C (centres unmarked) [Example 82] | –
5.37 | COC(=O)C1=C(C)NC(C)=C(C(=O)OCCOc2ccc([N+](=O)[O-])cc2)C1C (centres unmarked) [Example 110] | –
5.52 | COC(=O)C1=C(C)NC(C)=C(C(=O)OCCOc2cccc3ccccc23)C1C (centres unmarked) [Example 113] | –
5.62 | CCOC(=O)C1=C(C)NC(C)=C(C(=O)OCCCOc2cccc(N(C)C)c2)C1C (centres unmarked) [Example 133] | –
6.15 | COC(=O)C1=C(C)NC(C)=C(C(=O)OCCCOc2ccc(Oc3ccccc3)cc2)C1C (centres unmarked) [Example 139] | –
5.52 | CCOC(=O)C1=C(C)NC(C)=C(C(=O)OCCCOc2ccc3ccccc3c2)C1C (centres unmarked) [Example 152, 3-(2-naphthyloxy) propyl 5-ethoxycarbonyl-2,4,6-trimethyl-1,4-dihydropyridine-3-carboxylate] | –
5.60 | CCOC(=O)C1=C(C)NC(C)=C(C(=O)OCCCSc2ccc(Cl)cc2)C1CC (centres unmarked) [Example 165, 3-(4-chlorophenylthio) propyl 2,6-dimethyl-4-ethyl-5-ethoxycarbonyl-1,4-dihydropyridine-3-carboxylate] | –
6.72 | CCC1C(C(=O)OC)=C(C)NC(C)=C1C(=O)OCCCSc1ccc(C)cc1 (centres unmarked) [Example 172] | –
